Source: patent US11911610B2, “Methods for restoring sensitivity to TTFields in TTFields-resistant cancer cells with PTGER3 inhibitors” (Novocure GmbH, priority 2019, dated 2024)

Tests used:
[1] = test system: U87R resistant cells; assay: Live cell count of TTFields-resistant GBM cells treated with drug with or without TTFields for 3 days; type: cell-based, human; settings: for sensitivity to TTFields: inhibitor + TTFields 200 kHz compared with TTFields alone, FIG. 14
Procedure: (§1) For the experiments summarized in FIG. 13, resistant human GBM cells were treated with either vehicle control or aspirin and with or without TTFields for 3 days. Drug was replenished daily. The numbers of live cells were quantified using a cell counter at the end point.
PTGER3 inhibitors can restore sensitivity to TTFields.

[2] = test system: TTFields-resistant GBM cells (U87R, L428R, and LN827R); assay: Reduction of resistance to TTFields in TTFields-resistant GBM cells (FIG. 13); type: cell-based, human; settings: Aspirin+TTFields compared with Vehicle+TTFields, 3 days
Procedure: as §1

[3] = test system: LN827R cells; assay: Live cell count of TTFields-resistant GBM cells treated with drug with or without TTFields for 3 days; type: cell-based, human; settings: aspirin + TTFields, drug replenished daily, reduced from around 125 k/dish, TTFields alone increased count slightly
Procedure: as §1

[4] = test system: LN428R resistant cells; assay: as above; type: cell-based, human; settings: aspirin + TTFields, drug replenished daily, reduced from 85 k/dish, TTFields alone 70 k/dish
Procedure: as §1

[5] = test system: human GBM cell lines (LN827); assay: Resistant cell line generation experiment with PTGER3 inhibitor (FIG. 16); type: cell-based; settings: L798,106 + TTFields, 5 cycles of 7 days
Text: For the experiments summarized in FIG. 2, TTFields-resistant human GBM cell lines were generated by seeding LN827 cells at a density of 10,000/ml and treated with TTFields for in repeated 1-week cycles at a frequency of 200 kHz. For each cycle, cells were counted on day 2, day 4 and day 7. At the end of each cycle, the cells were re-seeded at the same density as on day 0, harvested and processed for RNAseq and cryopreservation for future analysis. Resistant cells emerged after at least four weeks of TTFields treatment.
The resistant cell line generation experiment using the original human GBM cell lines from FIG. 2 was repeated with two more groups that included a PTGER3 inhibitor (L798,106 and L798,106+TTFields) (FIG. 16). […] Cells were seeded and counted at the same cell density and time points. Each cycle lasts for 7 days within total of 5 cycles.

Row | Compound | live cell count ([1]; aspirin + TTFields, drug replenished daily, reduced from 150 k/dish, TTFields alone 125 k/dish) [k/dish] | resistance to TTFields [2] | live cell count [3] [k/dish] | live cell count [4] [k/dish] | live cell count ([1]; L798,106 0.5 μM + TTFields 200 kHz, reduced from around 200 k/dish, TTFields alone 125 k/dish) [k/dish] | sensitivity to TTFields [1] | development of resistance to TTFields [5] | live cell count ([1]; DG041 50 nM + TTFields 200 kHz, reduced from around 160 k/dish, TTFields alone 100 k/dish)
1 | CC(=O)Oc1ccccc1C(=O)O [aspirin] | 100 | significantly reduces resistance to TTFields | 90 | 40 |  |  |  | 
2 | COc1ccc(Br)cc1S(=O)(=O)NC(=O)/C=C/c1ccccc1Cc1ccc2ccccc2c1 [L798,106] |  |  |  |  | 25 | restores sensitivity to TTFields | prevented the development of resistance to TTFields | 
3 | Cc1cn(Cc2ccc(Cl)cc2Cl)c2c(/C=C/C(=O)NS(=O)(=O)c3cc(Cl)c(Cl)s3)cc(F)cc12 [DG041] |  |  |  |  |  | restores sensitivity to TTFields |  | around 40 k/dish
